Experimental data as given in patent US20100104521A1, “COSMETIC AND/OR PHARMACEUTICAL COMPOSITION COMPRISING AS AN ACTIVE PRINCIPLE AT LEAST ONE PEPTIDE AND USE OF THIS PEPTIDE” (SOCIETE D'EXTRACTION DES PRINCIPES ACTIFS SA (VINCIENCE), priority 2006, published 2010).

Test system: melanocytes of human skin biopsies
Test: Ex vivo study of the effect of the peptide on the synthesis of melanin (human skin biopsies, Fontana-Masson staining)
Assay type: cell-based
Conditions: human skin biopsies 6 mm in ex vivo culture, two applications daily, peptide at 1% starting with a 50-ppm solution, 48 hours
Experimental: The aim of this ex vivo study is to highlight the increase in melanization produced by the peptides according to the invention.
Protocol: Biopsies of human skin 6 mm in diameter are held in an ex vivo culture in the presence of a specific medium (1 g/L DMEM, Ham's F-12, SVF, and antibiotics) on inserts deposited on 6-well plates. […] The duration of the treatment is 48 hours. The biopsies are subsequently fixed in 9% formaldehyde and NaCl (150 mM) for 10 hours and then enclosed in paraffin. Thin-sections of the skin 3 μm thick are then made, and the melanin is specifically stained by the Fontana-Masson technique. […] Conclusions: The peptide of sequence of SEQ ID No. 4 induces a strong increase in the synthesis of melanin by the melanocytes and stimulates the entire process of melanin distribution in the epidermis.

Trp-Lys-Leu-Asp (WKLD) [SEQ ID No. 4]
location / distribution of melanin in the epidermis (Fontana-Masson staining): located in the basal layer but is also transported into the supra-basal layers
intensity of melanin coloration of skin thin-sections (Fontana-Masson technique) (versus biopsies without application): coloration of clearly increased intensity
